Measured values taken from US20250059187A1, “COVALENTLY BINDING INHIBITORS OF G12S, G12D AND/OR G12E MUTANTS OF K-RAS GTPASE” (The Regents of the University of California, priority 2021, published 2025).

What was measured:
[1] = molecular target: T1, K-Ras G12D (Homo sapiens, UniProt P01116, G12D); test: Covalent modification of recombinant K-Ras(G12D) by whole-protein mass spectrometry; assay type: binding
T1 construct: human K-Ras (G12D, aa 1-169); 6xHis tag + TEV cleavage site (N, cleaved yes); made in house; host or cells: E. coli BL21(DE3)
Procedure: (§1) Test compounds were prepared as 100× stock solutions in DMSO. K-Ras proteins were diluted with SEC Buffer (20 mM HEPES 7.5, 150 mM NaCl, 1 mM MgCl2) to 400 nM or 1 μM. In a typical reaction, 0.5 μL 100× compound stock was mixed with 50 μL diluted K-Ras protein, and the resulting mixture was incubated for the desired amount of time. The extent of modification was assessed by electrospray mass spectrometry using a Waters Xevo G2-XS system equipped with an Acquity UPLC BEH C4 1.7 μm column. The mobile phase was a linear gradient of 5-95% acetonitrile/water+0.05% formic acid. For kinetic measurements, a 2× compound solution was first prepared in SEC Buffer, which was then mixed with 400 nM K-Ras(G12D) protein at 1:1 (v/v) ratio. Injection time stamps were used to calculate elapsed time.

[2] = molecular target: T2, K-Ras(G13D) (Homo sapiens, UniProt P01116, G13D); test: Covalent modification of recombinant K-Ras(G13D) by whole-protein mass spectrometry; assay type: binding; conditions: GDP and GppNHp state
T2 construct: human K-Ras (G13D, aa 1-169); 6xHis tag + TEV cleavage site (N, cleaved yes); made in house; host or cells: E. coli BL21(DE3)
Procedure: as §1

[3] = molecular target: T3, K-Ras G12E (Homo sapiens, UniProt P01116, G12E); test: Covalent modification of recombinant K-Ras(G12E) by whole-protein mass spectrometry; assay type: binding; conditions: GDP and GppNHp state
T3 construct: human K-Ras (G12E, aa 1-169); 6xHis tag + TEV cleavage site (N, cleaved yes); made in house; host or cells: E. coli BL21(DE3)
Procedure: as §1

[4] = tested on: BaF3/K-Ras(G12D) cells; test: Growth inhibition of BaF3/K-Ras(G12D) cells; assay type: cell-based, murine; conditions: Mus musculus, read-out: IC50, growth of BaF3/K-Ras(G12D) cells
Procedure: (§2) Cells were seeded into 96-well white flat bottom plates (1,000 cells/well) (Corning) and incubated overnight. Cells were treated with the indicated compounds in a nine-point threefold dilution series (100 μL final volume) and incubated for 72 h. Cell viability was assessed using a commercial CellTiter-Glo (CTG) luminescence-based assay (Promega). Briefly, the 96-well plates were equilibrated to room temperature before the addition of diluted CTG reagent […] (1:4 CTG reagent:PBS). Plates were placed on an orbital shaker for 30 min before recording luminescence using a Spark 20M (Tecan) plate reader.

[5] = tested on: Ba/F3 KRAS G12D cells + interleukin-3; test: Growth inhibition of Ba/F3 KRAS G12D cells co-treated with IL-3; assay type: cell-based, murine; conditions: IL-3, 10 ng/mL
Procedure: as §2

[6] = tested on: SW1990 (homozygous KRAS^G12D/G12D); test: In-cell covalent labeling and signaling by Western blot, SW1990; assay type: cell-based
Procedure: (§3) Cells were passed for at least two generations after cryorecovery before they were used for assays. All cell lines were tested mycoplasma negative using MycoAlert™ Mycoplasma Detection Kit (Lonza). When indicated, cells were treated with drugs at 40-60% confluency at a final DMSO concentration of 1%. At the end of treatment period, cells were placed on ice. Unless otherwise indicated, adherent cells were washed once with ice-cold PBS (1 mL), scraped with a spatula, and pelleted by centrifugation (500×g, 5 min). Suspension cells were pelleted by centrifugation (500×g, 5 min), washed with 1 mL ice-cold PBS, and pelleted again. Cells were lysed in RIPA buffer supplemented with protease and phosphatase inhibitors (cOmplete and phosSTOP, Roche) on ice for 10 min. For RBD pulldown experiments, cells were lysed in Co-IP Lysis Buffer in lieu of RIPA buffer. Lysates were clarified by high-speed centrifugation (19,000×g, 10 min). Concentrations of lysates were determined with protein BCA assay (Thermo Fisher) and adjusted to 2 mg/mL with additional RIPA buffer (or Co-IP Lysis Buffer). […]
(§4) Unless otherwise noted, SDS-PAGE was run with Novex 12% Bis-Tris gel (Invitrogen) in MES running buffer (Invitrogen) at 200 V for 60 min following the manufacturer's instructions. […] The membrane was washed three times with TBST (5 min each wash) and imaged on a Li-COR Odyssey fluorescence imager.

[7] = tested on: AsPC-1 (homozygous KRAS^G12D/G12D); test: In-cell covalent labeling by Western blot, AsPC-1; assay type: cell-based
Procedure: as §3, §4

[8] = tested on: AGS cell line (heterozygous KRAS^G12D/WT); test: In-cell covalent labeling by Western blot, AGS; assay type: cell-based
Procedure: as §3, §4

[9] = tested on: non-G12D mutation cell lines; test: In-cell covalent labeling by Western blot, non-G12D cell lines; assay type: cell-based
Procedure: as §3, §4

[10] = tested on: non-G12D mutation cancer cell lines (H1299, HCT116, A549, A375); test: Growth inhibition of non-G12D mutation cancer cell lines; assay type: cell-based
Procedure: as §2

[11] = tested on: KRAS G12D mutation cancer cell lines; test: Growth inhibition of KRAS G12D cancer cell lines; assay type: cell-based
Procedure: as §2

[12] = molecular target: T4, wild type K-Ras (Homo sapiens, UniProt P01116); test: Covalent modification of test protein after incubation with compound; assay type: binding; conditions: 24-h incubation with 100 μM compound at 23° C. at pH 7.5
T4 construct: human K-Ras (wildtype, aa 1-169); 6xHis tag + TEV cleavage site (N, cleaved yes); made in house; host or cells: E. coli BL21(DE3)

[13] = molecular target: T1, K-Ras G12D; test: as above; assay type: binding; conditions: 24-h incubation with 100 μM compound at 23° C. at pH 7.5
[14] = molecular target: T3, K-Ras G12E; test: as above; assay type: binding; conditions: 24-h incubation with 100 μM compound at 23° C. at pH 7.5
[15] = molecular target: T5, K-Ras(G12D)·GDP (Homo sapiens, UniProt P01116, G12D); test: Detection of covalent modification of K-Ras(G12D) by tandem mass spectrometry; assay type: binding; conditions: 1 mM or 10 mM, 23° C., 1 h
T5 construct: human K-Ras (G12D, aa 1-169); 6xHis tag + TEV cleavage site (N, cleaved yes); made in house; host or cells: E. coli BL21(DE3)
Procedure: K-Ras(G12D) protein (1 μM, 100 μL) in PBS 7.4 was treated with β-propiolactone (1 mM or 10 mM) at 23° C. for 1 h. The reaction buffer was exchanged into Digestion Buffer (20 mM Tris 8.0, 2 mM CaCl2)) using a Zeba 0.5-mL desalting column (7K MWCO, Thermo Scientific). 80 μL of the resulting protein solution was mixed with 2 μL 200 mM DTT. The mixture was heated at 56° C. for 30 min. After cooling to 23° C., 4 μL 200 mM iodoacetamide was added. After 15 min at 23° C., 2.1 μL 200 mM DTT was added. After an additional 5 min, 500 ng trypsin was added to the mixture, and the samples were incubated at 37° C. overnight. 5 μL 10% formic acid was added to stop the digestion (final formic acid concentration: 0.5% v/v). The tryptic peptides were enriched and desalted using OMIX C18 tips (Agilent) following the manufacturer's instructions. Peptides (0.5% of total) were resolved on an Easy-Spray nano-HPLC column (Thermo Fisher ES800A, 150 mm length, […], […]) over a 54-min gradient of 2-37% acetonitrile-water+0.1% formic acid and analyzed by a Q-Exactive hybrid quadrupole-orbitrap mass spectrometer (MS1 resolution 70,000, AGC target: 3e6, range: 350-1500 m/z; MS2 resolution 17,500, AGC target: 5e4, max injection time: 120 ms, Top 10, NCE: 25%, dynamic exclusion: 15 s). […]

Compound | time to complete labeling of K-Ras(G12D)·GDP [1] | time to complete labeling of K-Ras(G12D)·GppNHp [1] | kinact/KI ([1]; read-out: kinact/KI against K-Ras(G12D)·GDP) | labeling of K-Ras G13D [2] | labeling of K-Ras G12E [3] | IC50 [4] | sensitivity of cells co-treated with interleukin-3 [5] | in-cell labeling of endogenous K-Ras(G12D) [6] | in-cell labeling of endogenous K-Ras(G12D) [7] | in-cell labeling of endogenous K-Ras [8] | in-cell labeling of K-Ras [9] | toxicity to non-G12D mutation cancer cell lines [10] | growth of KRAS G12D cancer cell lines [11] | % covalent modification of wild type K-Ras [12] | % covalent modification of K-Ras G12D [13] | % covalent modification of K-Ras G12E [14] | alkylation of Asp12 in peptide LVVVGAD*GVGK [15]
C#Cc1c(F)ccc2cc(O)cc(-c3ncc4c(N5C[C@H]6CC[C@@H](C5)N6C(=O)[C@@H]5OC(=O)C5(C)C)nc(OC[C@@]56CCCN5C[C@H](F)C6)nc4c3F)c12 [(R)-7] | ≤ 30 min | ≤ 300 min | 11000 M⁻¹ s⁻¹ | not that of WT, G12E, G12S, or G13D | not that of WT, G12E, G12S, or G13D | 73 ± 17 nM | lost sensitivity to (R)-7 up to 10 μM | labeled endogenous K-Ras(G12D) completely | labeled endogenous K-Ras(G12D) completely | only half of the two alleles | none in non-G12D mutation cell lines | minimal toxicity to the latter cell lines up to 10 μM concentration | selectively inhibited growth of cancer cells lines harboring K-Ras(G12D) mutation | 0% | 100% | 0% | 
O=C1CCO1 [β-propiolactone] |  |  |  |  |  |  |  |  |  |  |  |  |  |  |  |  | the mutant aspartate was covalently alkylated by a 2-carboxylethyl group
